Experimental data published in US11865129B2, “Application of anemoside B4 in preparation of a drug for treatment or prevention of psoriasis” (GUANGXI XINHAI PHARMACEUTICAL TECHNOLOGY CO., LTD., priority 2021, dated 2024).

How the values were obtained:
Assay type in all cases: in vivo, BALB/c male mice
[1] = test system: IL-6; assay: IL-6 level in skin tissue, psoriasis model mice; conditions: 12 days, compared with model control group
Experimental: (§1) A shaving area on the back of the mice in each group is 2.5 cm×3 cm, and the vellus is removed with mild depilatory cream. The mice of each group except the blank control group are modeled by administrating 62.5 mg 5% imiquimod cream on the shaving area until the skin is thickened and has erythema and silver scales for modeling completely. During the model establishment, 5% imiquimod cream is administrated once a day, and continuously administrated for 14 days. On the third day, the model establishment is continued and drugs are administered at the same time, wherein the mice in the AC intragastric administration group (8 mg/kg), the anemoside B4 intragastric (i.g.) administration group (5 mg/kg), the anemoside B4 intragastric administration group (10 mg/kg), and the anemoside B4 intragastric administration group (20 mg/kg) are administrated once a day, and continuously administrated for 12 days. […] The mice in the blank control group and the model control group are applied 62.5 mg Vaseline to the skin lesions once a day, and continuously applied for 12 days. The weight of the mice is recorded for counting the weight change of the mice. 100 mg skin tissue of the mice in each group of the first animal group are precisely weighed, added 0.9 mL ice normal saline, homogenized with the tissue grinder, and centrifuged at 4° C. and 3000 rpm for 10 min. The supernatant is collected, and IL-12, IL-17, IL-6 and IL-1β level in the skin tissue are measured by kits according to the procedures of specification.

[2] = test system: spleen; assay: Spleen coefficient, psoriasis model mice; conditions: 12 days, compared with model control group
Experimental: (§2) A shaving area on the back of the mice in each group is 2.5 cm×3 cm, and the vellus is removed with mild depilatory cream. The mice of each group except the blank control group are modeled by administrating 62.5 mg 5% imiquimod cream on the shaving area until the skin is thickened and has erythema and silver scales for modeling completely. During the model establishment, 5% imiquimod cream is administrated once a day, and continuously administrated for 14 days. On the third day, the model establishment is continued and drugs are administered at the same time, wherein the mice in the AC intragastric administration group (8 mg/kg), the anemoside B4 intragastric (i.g.) administration group (5 mg/kg), the anemoside B4 intragastric administration group (10 mg/kg), and the anemoside B4 intragastric administration group (20 mg/kg) are administrated once a day, and continuously administrated for 12 days. […] The mice in the blank control group and the model control group are applied 62.5 mg Vaseline to the skin lesions once a day, and continuously applied for 12 days. The weight of the mice is recorded for counting the weight change of the mice. After blood collection of the mice in each group of the first animal group, the mice are killed by dislocation of cervical vertebra, quickly separated the spleen and weighed to obtain the wet weight of the spleen, recording and calculating the spleen coefficient, wherein the spleen coefficient (%)=(spleen wet weight/body weight)×100%.

[3] = test system: IL-12; assay: IL-12 level in skin tissue, psoriasis model mice; conditions: 12 days, compared with model control group
Experimental: as §1

[4] = test system: 5% imiquimod-induced psoriatic lesions; assay: Psoriatic lesions and PASI, 5% imiquimod-induced psoriasis model in mice (first animal group); conditions: for skin lesions of the mice: 12 days
Experimental: as §2, with “mice.” for “mice. After blood collection of the mice in each group of the first animal group, the mice are killed by dislocation of cervical vertebra, quickly separated the spleen and weighed to obtain the wet weight of the spleen, recording and calculating the spleen coefficient, wherein the spleen coefficient (%)=(spleen wet weight/body weight)×100%.”

[5] = intragastric 5 mg/kg once a day
[6] = intragastric 10 mg/kg once a day
[7] = intragastric 20 mg/kg once a day

Structure (SMILES): C=C(C)[C@@H]1CC[C@]2(C(=O)O[C@@H]3O[C@H](CO[C@@H]4O[C@H](CO)[C@@H](O[C@@H]5O[C@@H](C)[C@H](O)[C@@H](O)[C@H]5O)[C@H](O)[C@H]4O)[C@@H](O)[C@H](O)[C@H]3O)CC[C@]3(C)[C@H](CC[C@@H]4[C@@]5(C)CC[C@H](O[C@@H]6OC[C@H](O)[C@H](O)[C@H]6O[C@@H]6O[C@@H](C)[C@H](O)[C@@H](O)[C@H]6O)[C@@](C)(CO)[C@@H]5CC[C@]43C)[C@H]12 [anemoside B4]
- level of IL-6 in the skin tissue [1, 5]: significantly reduced
- level of IL-6 in the skin tissue [1, 6]: significantly reduced
- level of IL-6 in the skin tissue [1, 7]: significantly reduced
- enlargement of the spleen [2, 5]: significantly relieved
- spleen coefficient [2, 5]: significantly decreased
- enlargement of the spleen [2, 6]: significantly relieved
- spleen coefficient [2, 6]: significantly decreased
- enlargement of the spleen [2, 7]: significantly relieved
- spleen coefficient [2, 7]: significantly decreased
- level of IL-12 in the skin tissue [3, 5]: significantly reduced
- level of IL-12 in the skin tissue [3, 6]: significantly reduced
- level of IL-12 in the skin tissue [3, 7]: significantly reduced
- improvement of the skin lesions, compared with the acitretin capsules (AC) intragastric administration group ([4]; anemoside B4 groups, doses not specified): better
- skin lesions of the mice [4, 5]: significantly improved
- skin lesions of the mice [4, 6]: significantly improved
- skin lesions of the mice [4, 7]: significantly improved
